Measured values reported in US20130225830A1, “POLYMORPHS OF FEBUXOSTAT” (MAPI PHARMA LIMITED, priority 2010, published 2013).
Several values for one entry are separate records, joined by “and”; a condition that tells them apart may be missing. Identical values can stand only once.

Experiments:
Format in all cases: physicochemical
[1] = Bulk and tapped density measurements
Protocol: Bulk density testing: A febuxostat form in an amount which is sufficient to complete the test was passed through a 1.0 mm (No. 18) screen to break up agglomerates that may have formed during storage. The febuxostat form was then weighed (M) and the powder was added into a 10 mL graduated cylinder. The powder was carefully leveled without compacting, and the unsettled apparent volume, Vo, was read. The bulk density, in g per mL, was calculated by the formula: Bulk Density=M/Vo Tapped density testing: A febuxostat form in an amount which is sufficient to complete the test was passed through a 1.0 mm (No. 18) screen to break up agglomerates that may have formed during storage. The febuxostat form was then weighed and the powder was added into a 10 mL graduated cylinder. The powder was carefully leveled without compacting. The cylinder was tapped 500 times initially and the tapped volume, Va, was measured to the nearest graduated unit. The tapping was then repeated for additional 750 times and the tapped volume, Vb, was measured to the nearest graduated unit. If the difference between the two volumes was less than 2%, Vb was taken as the final tapped volume, Vf. The tapped density, in g per mL, was calculated by the formula: Tapped Density=M/Vf

[2] = Physical stability measurements (XRPD, DSC, TGA)
Protocol: Testing conditions: 40° C., 60° C., 40° C./RH 75%, 60° C./RH 75%, light
Testing procedure: About 50 mg of a febuxostat form were weighed in glass vial for testing the physical stability and were stored under different conditions for 1 week and 2 weeks, separately. The same febuxostat form was stored at −20° C. as control. XRPD, DSC and TGA of each of the febuxostat forms were measured at the end of the first and second weeks.

[3] = Hygroscopicity measurements (DVS sorption/desorption profiles)
Protocol: The sorption/desorption profiles of the forms of the present invention were tested at 25° C. under 0-90% relative humidity. The forms of the present invention were classified according to the following criteria: Deliquescent: Sufficient water is absorbed to form a liquid. […] Hygroscopic: Increase in mass is less than 15% and equal to or greater than 2%. Slightly hygroscopic: Increase in mass is less than 2% and equal to or greater than 0.2%. Non-hygroscopic: Increase in mass is less than 0.2%.

[4] = Solid stability measurements (appearance, assay and total related substances by HPLC); conditions: for Remaining (%): one value for both samples, vs −20° C. control; for Appearance / TRS (%): samples 1 and 2
Protocol: The detailed chromatographic conditions are listed hereinbelow. The typical retention time of febuxostat main peak is 8.2 min. [table] Testing conditions: 40° C., 60° C., 40° C./RH 75%, 60° C./RH 75%, light Testing procedure: About 3 mg of a febuxostat form were weighed in a glass vial and stored under the different conditions for 1 week and 2 weeks, separately. The same febuxostat form was stored at −20° C. as control. The test was conducted in duplication. The physical appearance, assay and total related substances of each of the febuxostat forms were measured by HPLC at the end of the first and second weeks.

In the case of `Cc1nc(-c2ccc(OCC(C)C)c(C#N)c2)sc1C(=O)O` [Form IX, 2-(3-cyano-4-isobutoxyphenyl)-4-methyl-5-thiazolecarboxylic acid], the “Bulk Density” value [1] is reported as 0.177 g/mL, the “Tapped Density” value [1] is reported as 0.282 g/mL and the “bulk and tapped densities (in words)” value ([1]; compared among forms V, IX, XI and form G) is reported as “lowest bulk and tapped densities”. For the same compound, the “physical stability (XRPD, DSC, TGA)” value ([2]; 40° C., 60° C. and light at the end of the first and second week) was “stable”, the “physical stability (XRPD, DSC, TGA), form conversion” value ([2]; 40° C./75% RH at the end of the second week) was “partially converted to form G” and the “physical stability (XRPD, DSC, TGA), form conversion” value ([2]; 60° C./75% RH at the end of the first and second weeks) was “completely converted to form G”. For the same compound, the Hygroscopicity classification ([3]; 25° C., 0-90% relative humidity) was “hygroscopic”, the “hygroscopicity compared with Form G of U.S. Pat. No. 6,225,474” value ([3]; DVS isotherm plots) was “less hygroscopic” and the “Change in Mass (%) - ref, Desorption” value ([3]; Target % P/P0 0.0, 25° C.) was 0.031%. The “Change in Mass (%) - ref, Sorption” value ([3]; Target % P/P0 0.0, 25° C.) was 0.000%, the “Change in Mass (%) - ref, Desorption” value ([3]; Target % P/P0 10.0, 25° C.) was 0.247% and the “Change in Mass (%) - ref, Hysteresis” value ([3]; Target % P/P0 10.0, 25° C.) was 0.121%. The “Change in Mass (%) - ref, Sorption” value ([3]; Target % P/P0 10.0, 25° C.) was 0.127%, the “Change in Mass (%) - ref, Desorption” value ([3]; Target % P/P0 20.0, 25° C.) was 0.323% and the “Change in Mass (%) - ref, Hysteresis” value ([3]; Target % P/P0 20.0, 25° C.) was 0.128%. The “Change in Mass (%) - ref, Sorption” value ([3]; Target % P/P0 20.0, 25° C.) was 0.195%, the “Change in Mass (%) - ref, Desorption” value ([3]; Target % P/P0 30.0, 25° C.) was 0.428% and the “Change in Mass (%) - ref, Hysteresis” value ([3]; Target % P/P0 30.0, 25° C.) was 0.176%. The “Change in Mass (%) - ref, Sorption” value ([3]; Target % P/P0 30.0, 25° C.) was 0.252%, the “Change in Mass (%) - ref, Desorption” value ([3]; Target % P/P0 40.0, 25° C.) was 0.510% and the “Change in Mass (%) - ref, Hysteresis” value ([3]; Target % P/P0 40.0, 25° C.) was 0.160%. For the same compound, the “Change in Mass (%) - ref, Sorption” value ([3]; Target % P/P0 40.0, 25° C.) was 0.351%, the “Change in Mass (%) - ref, Desorption” value ([3]; Target % P/P0 50.0, 25° C.) was 0.616% and the “Change in Mass (%) - ref, Hysteresis” value ([3]; Target % P/P0 50.0, 25° C.) was 0.184%. The “Change in Mass (%) - ref, Sorption” value ([3]; Target % P/P0 50.0, 25° C.) was 0.432%, the “Change in Mass (%) - ref, Desorption” value ([3]; Target % P/P0 60.0, 25° C.) was 0.786% and the “Change in Mass (%) - ref, Hysteresis” value ([3]; Target % P/P0 60.0, 25° C.) was 0.221%. For the same compound, the “Change in Mass (%) - ref, Sorption” value ([3]; Target % P/P0 60.0, 25° C.) was 0.566%, the “Change in Mass (%) - ref, Desorption” value ([3]; Target % P/P0 70.0, 25° C.) was 1.139% and the “Change in Mass (%) - ref, Hysteresis” value ([3]; Target % P/P0 70.0, 25° C.) was 0.391%. The “Change in Mass (%) - ref, Sorption” value ([3]; Target % P/P0 70.0, 25° C.) was 0.747%, the “Change in Mass (%) - ref, Desorption” value ([3]; Target % P/P0 80.0, 25° C.) was 1.583% and the “Change in Mass (%) - ref, Hysteresis” value ([3]; Target % P/P0 80.0, 25° C.) was 0.583%. For the same compound, the “Change in Mass (%) - ref, Sorption” value ([3]; Target % P/P0 80.0, 25° C.) was 1.000%, the “Change in Mass (%) - ref, Desorption” value ([3]; Target % P/P0 90.0, 25° C.) was 2.135% and the “Change in Mass (%) - ref, Sorption” value ([3]; Target % P/P0 90.0, 25° C.) was 2.135%. The “change of assay and TRS (in words)” value ([4]; 40° C., 60° C., 40° C./75% RH, 60° C./75% RH at end of the first and second weeks) was “no significant change”, the “Remaining (%)” value ([4]; 40° C., 7 d) was 99.70% and the Appearance ([4]; 40° C., 7 d) was “No change”. The “TRS (%)” value ([4]; 40° C., 7 d) was 1.28% and 1.30%, the “Remaining (%)” value ([4]; 40° C., 14 d) was 100.02% and the Appearance ([4]; 40° C., 14 d) was “No change”. The “TRS (%)” value ([4]; 40° C., 14 d) was 1.29% and 1.32%, the “Remaining (%)” value ([4]; 40° C./75% RH, 7 d) was 100.47% and the Appearance ([4]; 40° C./75% RH, 7 d) was “No change”. For the same compound, the “TRS (%)” value ([4]; 40° C./75% RH, 7 d) was 1.34% and 1.31%, the “Remaining (%)” value ([4]; 40° C./75% RH, 14 d) was 99.47% and the Appearance ([4]; 40° C./75% RH, 14 d) was “No change”. The “TRS (%)” value ([4]; 40° C./75% RH, 14 d) was 1.35% and 1.33%, the “Remaining (%)” value ([4]; 60° C., 7 d) was 100.80% and the Appearance ([4]; 60° C., 7 d) was “No change”. The “TRS (%)” value ([4]; 60° C., 7 d) was 1.37% and 1.35%, the “Remaining (%)” value ([4]; 60° C., 14 d) was 100.41% and the Appearance ([4]; 60° C., 14 d) was “No change”. For the same compound, the “TRS (%)” value ([4]; 60° C., 14 d) was 1.38% and 1.35%, the “Remaining (%)” value ([4]; 60° C./75% RH, 7 d) was 100.89% and the Appearance ([4]; 60° C./75% RH, 7 d) was “No change”. For the same compound, the “TRS (%)” value ([4]; 60° C./75% RH, 7 d) was 1.33%, the “Remaining (%)” value ([4]; 60° C./75% RH, 14 d) was 100.07% and the Appearance ([4]; 60° C./75% RH, 14 d) was “No change”. The “TRS (%)” value ([4]; 60° C./75% RH, 14 d) was 1.35% and 1.33%, the “Remaining (%)” value ([4]; Light, 7 d) was 97.50% and the Appearance ([4]; Light, 7 d) was “Light yellow”. The “TRS (%)” value ([4]; Light, 7 d) was 3.07% and 3.05%, the “Remaining (%)” value ([4]; Light, 14 d) was 92.81% and the Appearance ([4]; Light, 14 d) was “Light yellow”. For the same compound, the “TRS (%)” value ([4]; Light, 14 d) was 6.30% and 6.54%, the Appearance ([4]; −20° C. (control), 7 d) was “No change” and the “TRS (%)” value ([4]; −20° C. (control), 7 d) was 1.23% and 1.22%. The Appearance ([4]; −20° C. (control), 14 d) was “No change” and the “TRS (%)” value ([4]; −20° C. (control), 14 d) was 1.24% and 1.23%.
